Reference: patent US7491383B2, “Compositions having enhanced pharmacokinetic characteristics” (Allergan, Inc., priority 2001, dated 2009)
Where two headings read alike, the source gives them in different places.

Legend:
monkeys (sedation) = tested on: monkeys (sedation)
Method: This study involved cross overs and a one-week wash out in between the administration of the various compounds.
As done in a previous experiments, the following method was followed: • 1. 6 trained monkeys were placed in chairs and allowed to acclimate for approximately 30 minutes. • 2. Individual monkeys were brought into the “testing room” where they were allowed to adjust to the new environment for approximately 2 minutes. […] Sedation scores were recorded on an observation sheet. • 3. The monkey were returned to the group of animals assigned to this study. • 4. 2 baseline readings were done at T-0.5 and 0 hour. After the 0 hour reading one drop of the test compound was administered to the right eye. • 5. Steps 2 & 3 were repeated at T=0.5, 1, 2, 3 and 4 hour. • 6. Animals were monitored until they recover from effects of the drug. • 7. […] Test Compound Administration:
The scoring was conducted for each animal for the different test compounds. The average results are shown on table 1.

[1] = tested on: Rabbit Intraocular Pressure; conditions: 20 μL of 0.2% on cornea, mean ± S.E.M., n = 8
Excerpt: In this study, the animals were placed into three groups consisting of a mix of age, size and sex.
One group of animals (both sexes) were used per screening study.
The following general procedure for administering the test compound employed in this study is presented below: • 1. Make sure that the 0.25% proparacaine Opthetic® mixture (topical local anesthetic), test compounds, and commercially available treats are available. • 2. Turn on the Digilab Modular One™ Pneuma Tonometer (pneumatonometer) [BioRad, Cambridge, Mass.]; it needs approximately 15 minutes to warm up. Turn on gas supply or air pump. • 3. Hold probe vertically with the point tip down and press “calibration check” for “zero”. • 4. Wipe the pneumatonometer probe with an alcohol swab, and inspect the tip membrane for holes. • 5. Set the external calibration device (air or water manometer) to 25 mm Hg, place the pneumatonometer probe in the calibration device to an ensure that it corresponded to 25±2 mm Hg. • 6. Obtain a rabbit. Make sure the recording data sheets are at hand. • 7. Gently restrain the rabbit via a commercial restrainer or a cotton towel. Measure the pupil diameter with the specialized ruler for each eye and record the values on the sheets provided. If the eyes are too dark to obtain a value by this method, a specialized penlight may be used. Obtain a pupil diameter measurement by shining the penlight on the cornea for one second. • 8. Slide the upper eyelid up the thumb and visually assess and score the degree of ocular surface redness. Record the value for each eye on the sheet provided. • 9. Put one drop of 0.25% proparacaine Opthetic® (50:50 mix of 0.5% proparacaine Opthetic®+Cellufresh®) on the surface of each eye. Wait one or more minutes for ophthetic to take effect. • 10. Place the pnematonometer tip on one eye at the site where the curvature of the cornea is greatest. Let the probe shank travel to the black line, not the red line. Persist until a stable reading with the standard deviation below 1.0 is obtained. Repeat the procedure for the contralateral eye. Record the data. (Note: If the animal is upset by the restraint, the reading will be artificially high and cannot be used. Use gentle restraint). • 11. At the end of the 0, 6, 24, 30, 48, 54, 72, 78 and 96 hour measurements, use an automatic pipette to apply 20 μL of the test compound to the surface of the cornea of one eye. After the 102 hour measurements, the eyes will be washed out with Refresh® and Prefrin®. • 12. Give the animal a treat and return the animal to its cage. • 13. Repeat steps 7 to 11 on the remaining animals in the group.
The following general procedure for measuring the effects of the test compound employed in this study is as follows: a reading is conducted at 0, 2, 4, 6, 24, 26, 28, 30, 48, 50, 52, 54, 72, 74, 76, 78, 96, 98, 100, and 102 hours. The pneumatonometer is calibrated before use with a manometer and the probe tip is wiped with an alcohol swab. One drop of 0.25% proparacaine Opthetic®, a corneal anesthetic, is placed on the cornea. Allow sufficient time (approximately 1 minute) for it to anesthetize the cornea before placing the probe on the eye. The eye is gently opened by the person doing the tonometer reading. The probe is placed on the cornea at the point of greatest curvature and a stable reading is obtained. The probe is held parallel to the floor and perpendicular to the line of the rabbit's sight. The reading is repeated until a reasonable reading can be obtained. The piston should be between the red and black lines or at the black line on the probe.

Intra Ocular Pressure = conditions: 0.131% Brimonidine and 0.126% linoleic acid
Excerpt: The treatment is an ion pair formulation of 0.131% Brimonidine and 0.126% linoleic acid.

tartrate of 5-bromo-6-(2-imidozolin-2-ylamino) quinoxaline [Brimonidine Tartrate, reference compound]
sedation compared with the other test compounds (in words) (monkeys (sedation); 0.2%, one drop right eye): more sedation than dosing with Brimonidine-linoleic acid | SEDATION SCORE (average, scale S=0 to S=4) (monkeys (sedation); 0.2%, one drop right eye, time 0 hr (baseline, before dosing)): 0.8 | SEDATION SCORE (average, scale S=0 to S=4) (monkeys (sedation); 0.2%, one drop right eye, time 0.5 hr): 0.8 | SEDATION SCORE (average, scale S=0 to S=4) (monkeys (sedation); 0.2%, one drop right eye, time 1 hr): 1.7 | SEDATION SCORE (average, scale S=0 to S=4) (monkeys (sedation); 0.2%, one drop right eye, time 2 hr): 2.6 | SEDATION SCORE (average, scale S=0 to S=4) (monkeys (sedation); 0.2%, one drop right eye, time 3 hr): 2.5 | SEDATION SCORE (average, scale S=0 to S=4) (monkeys (sedation); 0.2%, one drop right eye, time 4 hr): 2.7 | SEDATION SCORE (average, scale S=0 to S=4) (monkeys (sedation); 0.2%, one drop right eye, time −0.5 hr (baseline)): 0.7 | observed state of the monkeys on average (monkeys (sedation); usually from the 2-hour time point to the end of observations): sleepy and inactive with heavy eyes

Brc1c(NC2=NCCN2)ccc2nccnc12.CCCCCC=CCC=CCCCCCCCC(=O)O [Brimonidine-linoleic acid]
INTRAOCULAR PRESSURE ([1]; time 0 hr (reading before first dose)): 25.8 ± 1.2 mm Hg | INTRAOCULAR PRESSURE ([1]; time 2 hr): 17.1 ± 1.0 mm Hg | INTRAOCULAR PRESSURE ([1]; time 4 hr): 21.1 ± 1.0 mm Hg | INTRAOCULAR PRESSURE ([1]; time 6 hr (dosed again after reading)): 23.9 ± 1.0 mm Hg | INTRAOCULAR PRESSURE ([1]; time 24 hr (dosed after reading)): 25.6 ± 0.5 mm Hg | INTRAOCULAR PRESSURE ([1]; time 26 hr): 19.9 ± 0.6 mm Hg | INTRAOCULAR PRESSURE ([1]; time 28 hr): 22.9 ± 0.8 mm Hg | INTRAOCULAR PRESSURE ([1]; time 30 hr (dosed after reading)): 23.0 ± 1.1 mm Hg | INTRAOCULAR PRESSURE ([1]; time 48 hr (dosed after reading)): 26.5 ± 1.0 mm Hg | INTRAOCULAR PRESSURE ([1]; time 50 hr): 20.4 ± 0.6 mm Hg | INTRAOCULAR PRESSURE ([1]; time 52 hr): 23.4 ± 0.7 mm Hg | INTRAOCULAR PRESSURE ([1]; time 54 hr (dosed after reading)): 24.1 ± 0.8 mm Hg | INTRAOCULAR PRESSURE ([1]; time 72 hr (dosed after reading)): 26.8 ± 0.9 mm Hg | INTRAOCULAR PRESSURE ([1]; time 74 hr): 21.1 ± 0.8 mm Hg | INTRAOCULAR PRESSURE ([1]; time 76 hr): 23.9 ± 1.1 mm Hg | INTRAOCULAR PRESSURE ([1]; time 78 hr (dosed after reading)): 25.2 ± 0.9 mm Hg | INTRAOCULAR PRESSURE ([1]; time 96 hr (dosed after reading)): 27.9 ± 1.1 mm Hg | INTRAOCULAR PRESSURE ([1]; time 98 hr): 20.1 ± 1.3 mm Hg | INTRAOCULAR PRESSURE ([1]; time 100 hr): 23.9 ± 0.7 mm Hg | INTRAOCULAR PRESSURE ([1]; time 102 hr): 25.3 ± 1.6 mm Hg | percent change with time of Intra Ocular Pressure (Intra Ocular Pressure; 0 hr (administration of complex)): 0.0 mm Hg | percent change with time of Intra Ocular Pressure (Intra Ocular Pressure; 1 hr after administration): −10.4 mm Hg | percent change with time of Intra Ocular Pressure (Intra Ocular Pressure; 2 hr after administration): −16.0 mm Hg | percent change with time of Intra Ocular Pressure (Intra Ocular Pressure; 4 hr after administration): −9.5 mm Hg | percent change with time of Intra Ocular Pressure (Intra Ocular Pressure; 6 hr after administration): −9.4 mm Hg
